Assay [1] concerns neonatal rats. Kind of assay: Cerebral damage induced by icv injection of N-methyl-D-aspartate, total brain weight. The assay is classed as in vivo. Conditions: for Total brain weight: NMDA 25 nmoles icv, 1 hour before and immediately after NMDA, day 12. On the procedure: Experiments were performed on 7 day old neonatal rats weighing ca. 13 grams. […] The excitotoxin was solubilized in saline, and the pH was brought to 7.4 by adding 1N NaOH. The NMDA injection (25 nmoles/μl) was performed slowly (2 minutes) at the level of the right lateral ventricle utilizing a Hamilton syringe. Saline was administered to control animals (1 μl icv).
The compound was administered subcutaneously (sc) after suspension in 1% DMSO (experiment No. 1) or in 0.5% tragacanth (experiment No. 2). The compound was tested at the following doses: 1-3-5 mg/kg sc.
The treatment was conducted performing two administrations:
1 hour before NMDA injection;
immediately after NMDA injection.
The number of animals utilized in each experimental group (corresponding to the total number of animals, i.e., experiment 1+experiment 2, according to Table 3) is indicated in brackets.
Animals were sacrificed on the 12th day (i.e., 5 days after NMDA injection) for the evaluation of the in toto brain weight, defined in mg.
The statistical significance was evaluated using Dunnett's test.

For assay [2], the system named is cerebellar granule cells and cortical neurons. Kind of assay: Whole cell registration of glutamate-activated inward currents. In kind it is cell-based, rats. The following applies: glutamate 50 μM given contemporaneously with ND37 30 μM; absence of Mg++. The protocol: Primary cell cultures of cerebellar granule cells were prepared from 8 day old rats (Zivic Miller, Pittsburgh, Pa, USA).
Neurons were grown on 35 mm plates for 7-8 days and maintained in a humid environment (95% air and 5% CO2). Cultures (2.5×10^6 cells/plate) were mainly formed by granule cells (95%), with a small amount (5%) of glial cells (Gallo V. et al.: Selective release of glutamate from cerebellar granule cells differentiating in culture. Proc. Natl. Acad. Sci. USA 79, 7919-23, 1982). Glial proliferation was prevented by arabinofuranoside cytosine.
Primary cell cultures of cortical neurons were prepared from one day old neonatal […] (Zivic Miller, Pittsburgh, Pa., USA) (Bertolino and Vicini: Mol. Pharmacol. 34, 98-103, 1988).
Cultures were grown on 35 mm plates, to which was added 10 μg/ml of poly-L-lysine, at a density of 5×10^5 cortical neurons/plate. Cultures were prepared on basal Eagle medium (Gibco) containing 10% fetal calf serum (Gibco), 25 mM KCl, 2 mM glutamine, and 100 μg/ml gentamycine. […]
Derivative ND37 was solubilized at a concentration of 1×10^-2 M in dimethylsulfoxide (1% DMSO), and then diluted at various concentrations in Locke's solution (-Mg^++) (154 mM NaCl/5.6 mM KCl/3.6 mM NaHCO3 /2.3 mM CaCl2 /5.6 mM glucose/5 mM HEPES, pH 7.4). ND37 was analyzed at concentrations of 20 and 30 μM. […]

Assay [3] deals with C1300 mouse neuroblastoma cells, Neuro-2a clone. Kind of assay: Neuritogenic activity (cells with neurites, optical microscopy). In kind it is cell-based. On the procedure: C1300 mouse neuroblastoma cells, Neuro-2a clone, (American Cell Type Culture Collection, Bethesda, Md.) were grown at a density of 10,000 cells/well in a culture medium containing Dulbecco's modified Eagle medium (DMEM, Flow), 10% fetal calf serum (FCS, batch IP 02, Seromed), penicillin (100 units per ml, Irvine), and L-glutamine (2 mM, Sigma). Cells were incubated at 37° C. for 24 hours, and medium was removed and substituted with 350 μl of fresh medium plus compounds to be tested.
Tested Compounds and Their Solubilization
Compounds ND35 and ND37 were solubilized at a concentration of 1×10^-2 M in dimethylsulfoxide (1% DMSO). For the different compounds, progressive dilutions in culture medium were performed (concentrations from 1×10^-5 to 1×10^-4 M).
Neuritogenic activity (cell number with neurites, optical microscopy)
Culture plates were incubated with compounds to be tested and analyzed using a phase contrast microscope (250×). Nine fields with prefixed coordinates were chosen and photographed. Then the total number of cells and those with neurites (length at least double the cell diameter) were counted in blind in each photograph. The percentage of cells with neurites was determined after counting of at least 100 cells (Facci L. et al.: Promotion of neuritogenesis in mouse neuroblastoma cells by exogenous ganglioside GM1. J. Neurochem. Raven Press, New York, 299-305,1984).

Structures are written as SMILES. Entries after “also recorded” stand apart in the source; their conditions may differ.

As for `CCCCCCCCCCCCCCCC(=O)NC1C(O)CC(OCC)(C(=O)N(C)C)OC1C(O)C(O)CO` (stereo not drawn) [ND37, β-2-O-ethylglycoside of the dimethylamide of N-palmitoylneuraminic acid], the “efficacy against NMDA brain damage” value in assay [1] (1 mg/kg sc, p<0.01) is “significatively effective”. In addition, the “reduction of brain damage induced by the excitotoxin (lowering of total brain weight)” value in assay [1] (1-3-5 mg/kg sc) is “effective in reducing the brain damage”. In addition, the Total brain weight in assay [1] (Experiment n.1 (vehicle = DMSO 1%), 1 mg/kg sc) was 960 mg; in assay [1] (Experiment n.1 (vehicle = DMSO 1%), 3 mg/kg sc) it was 968 mg; in assay [1] (Experiment n.1 (vehicle = DMSO 1%), 5 mg/kg sc), 959 mg; in assay [1] (Experiment n.2 (0.5% tragacanth), 1 mg/kg sc), 1019 mg; in assay [1] (Experiment n.2 (0.5% tragacanth), 3 mg/kg sc), 977 mg; in assay [1] (Experiment n.2 (0.5% tragacanth), 5 mg/kg sc), 976 mg. Moreover, the “inside currents activated by glutamate (whole cell response)” value in assay [2] is reported as “does not influence the control response; also recorded: not different”. Also, the “Cells with neurities (%)” value in assay [3] (1 × 10^-4 M) came out at 48 ± 9%; in assay [3] (1 × 10^-5 M) it was 5 ± 3%; in assay [3] (2.5 × 10^-5 M), 8 ± 4%; in assay [3] (5 × 10^-5 M) it was 27 ± 5%. For the same compound, in assay [3] (1×10^-5 to 1×10^-4 M), the neuritogenesis in vitro entry is reported as “induce neuritogenesis”.

The record behind these values is US5677285A, “Derivatives of neuraminic acid” (Fidia S.P.A., priority 1992, dated 1997).
